Read-outs that look alike come from different tables or passages of the source.
How the values were obtained:
[1] = system: HER2-overexpressing human gastric cancer cell line NCI-N87; assay: NCI-N87 subcutaneous xenograft, zongertinib with T-DXd; type: in vivo, NMRI-Foxn1^nu mice; details: for Regressions >30% / TGI: day 22; for Regressions >30%: tumors regressed/total
Method: The study is performed in human gastric cancer cell line NCI-N87 grown as subcutaneous xenografts in NMRI-Foxn1^nu mice. Day 1 was the first day, day 21 the last day of treatment and day 22 the final day of analysis. […]
NCI-N87 is a HER2-overexpressing human gastric cancer cell line that can be obtained from the American Type Culture Collection (ATCC #CRL-5822). Cells are cultured in T175 tissue culture flasks at 37° C. and 5% CO2. The medium used is RPMI 1640 (ATCC #30-2001) supplemented with 10% fetal calf serum (FCS) (Thermo Scientific #SH 30084.03). Cultures are split twice weekly with a ratio of 1:2.
Mice are 6- to 10-week-old female NMRI-Foxn1^nu purchased from Taconic, Denmark. After arrival at the animal facility, mice are allowed to adjust to conditions at least for 5 days before they are used for the experiment. They are housed in Macrolon® type III cages in groups of 8 to 10 under pathogen-free, controlled and standardized conditions at 21.5±1.5° C. temperature, 55±10% humidity and 12-h light-dark cycle. Standardized diet (PROVIMI KLIBA) and autoclaved tap water are provided ad libitum. Subcutaneous microchips implanted under isoflurane anaesthesia are used to identify each mouse. Cage cards showing the study number, the animal identification number, the compound, the dose level, the administration route as well as the schedule remain with the animals throughout the study.
To establish subcutaneous tumors, NCI-N87 cells are harvested by centrifugation, washed and resuspended in PBS+5% FCS at 2.5×10^7 cells/ml. 100 μl cell suspension containing 2.5×10^6 cells is injected subcutaneously into the right flank of the mice (1 site per mouse).
The suspension is used for a maximum of 7 days.
T-DM1 (Kadcyla) can be purchased from Roche.
Mice in the control group are treated with vehicle, i.e.: • (i) 0.5% Natrosol, administered once daily for the duration of the treatment intragastrally by gavage needle with a volume of 10 ml/kg body weight; and • (ii) saline (0.9%), administered once every three weeks intravenously into the tail vein with a volume of 5 ml/kg.
Tumor volumes are measured three times a week with a caliper. The volume of each tumor [in mm^3] is calculated according to the formula: […]
To monitor side effects of treatment, mice are inspected daily for abnormalities and body weight is determined three times a week. […] In addition, animals with tumor sizes exceeding 1500 mm^3 in diameter, with ulcerating tumors or 18% body weight loss are euthanized for ethical reasons.
For a quick overview of possible treatment effects, the median of the tumor volume of each treatment group T is referred to the median of the control C as tumor growth inhibition (TGI) defined as: […]

[2] = system: HER2-overexpressing human esophagus cancer cell line OE19; type: in vivo; details: day 20, zongertinib 20 mg/kg qdx20 p.o., T-DXd 3 mg/kg q21dx1 i.v., alone or combined; for Regressions >30%: tumors regressed/total
Method: The study is performed in human esophagus cancer cell line OE19 grown as subcutaneous xenografts in NMRI-Foxn1^nu mice. Day 1 was the first day, day 20 the final day of analysis.
OE19 is a HER2-overexpressing human esophagus cancer cell line that can be obtained from the European Collection of Authenticated Cell Cultures (ACACC Cat. No. 960071721). Cells are cultured in T75, T175 and 5-Layer tissue culture flasks at 37° C. and 5% CO2. The medium used is RPMI 1640 (ATCC #30-2001) supplemented with 10% FCS (Thermo Scientific #SH 30084.03). Cultures are split twice weekly with a ratio of 1:3-1:4.
To establish subcutaneous tumors, OE19 cells are harvested by centrifugation, washed and resuspended in PBS+5% FCS at 5×10^7 cells/ml. 100 μl cell suspension containing 5×10^6 cells is injected subcutaneously into the right flank of the mice (1 site per mouse).
Tumor volumes and side effects are monitored as described in Example 1 (see paragraph 1.1.6), except that control animals are sacrificed when the median tumor volume of the group reaches a size of approximately 1190 mm^3.
The statistical evaluation of the tumor volume and the body weight is conducted on day 20.

[3] = system: HER2-overexpressing human breast cancer cell line SUM190PT; type: in vivo
Method: The study is performed in human breast cancer cell line SUM190PT grown as subcutaneous xenografts in NMRI-Foxn1^nu mice. Day 1 was the first day, day 21 the last day of treatment and final day of analysis.
Cells are obtained and cultured as described in Example 8 (see paragraph 8.1.2).
Capecitabine can be purchased from Roche Pharma AG. Capecitabine is suspended with 0.5% Natrosol and administered intragastrally with a volume of 10 ml/kg.
Tumor volumes and side effects are monitored as described in Example 1 (see paragraph 1.1.6), except that control animals are sacrificed when the median tumor volume of the group reaches a size of approximately 540 mm^3.
The statistical evaluation of the tumor volume and the body weight is conducted on day 21 (last day of the study). Apart from this, statistical analysis was performed as described in Example 1 (see paragraph 1.1.7), with no evaluation of tumor growth after stop of treatment.

[4] = system: T-DXd-resistant NCI-N87 cells; assay: Proliferation assay (CellTiter Glo), T-DXd resistant NCI-N87 cells; type: cell-based, human; details: 5 days of incubation, in vitro
Method: Per well, 1000 cells are seeded in 40 μL medium in white, sterile 384-well culture plates (TC-treated; PerkinElmer #6007680) and incubated overnight in a humidified incubator at 37° C. and 5% CO2. 0.1% DMSO-control or serial compound dilution in triplicates are added. […] After 5 days of incubation with test compounds, the cells plates are measured upon addition of CellTiter Glo Luminescent Cell Viability Reagent (Promega, #G9243) to assess cell viability. The plates are placed on a shaker for five minutes and additionally incubated for 10 minutes at room temperature to induce cell lysis and to stabilize the luminescent signal. The luminescent signal of each well is measured in an EnSpire Multilabel Plate Reader 658 (PerkinElmer). The dose response curves are fit and visualized using Boehringer Ingelheim's proprietary software MegaLab and PRISM (GraphPad Inc.).

[5] = zongertinib 10 mg/kg qdx21 p.o., alone or combined with T-DXd 3 mg/kg q21dx1 i.v.
[6] = zongertinib 20 mg/kg qdx21 p.o., T-DXd 3 mg/kg q21dx1 i.v., alone or combined

For `C=CC(=O)NC1CCN(c2ncc3ncnc(Nc4ccc(Oc5ccc6c(c5)ncn6C)c(C)c4)c3n2)CC1` [Zongertinib, N-{1-[8-({3-methyl-4-[(1-methyl-1H-1,3-benzodiazol-5-yl)oxy]phenyl}amino)-[1,3]diazino [5,4-d]pyrimidin-2-yl]piperidin-4-yl}prop-2-enamide], which “Regressions >30%” value [1, 5] is on record?
The value was 5/8.

What about the “Regressions >30%” value [1, 6] of the same compound?
Its value is 7/8.

What about the TGI [1, 5] of the same compound?
Its TGI is 114%.

What about the TGI [1, 6] of the same compound?
The TGI was 123%.

And the “effect on tumor growth (median tumor volumes over time)” value ([1]; zongertinib 10 or 20 mg/kg/day, T-DXd 3 mg/kg once, 21-day experiment)?
The value was “continuously shrank more than those in mice treated with T-DXd”.

What about the “Regressions >30%” value [2] of the same compound?
Its value is 0/8.

What about the “Regressions >30%” value ([2]; listed as zongertinib) of the same compound?
Its value is “no tumors”.

What about the TGI [2] of the same compound?
Its TGI is 73%.

And the “Regressions >30%” value ([3]; day 21, tumors regressed/total (partial response), zongertinib 10 mg/kg qdx21 p.o., capecitabine 400 mg/kg qdx21 p.o., trastuzumab 20 mg/kg q7dx3 i.p., alone or combined)?
Its value is 0/8.

And the TGI ([3]; day 21, zongertinib 10 mg/kg qdx21 p.o., capecitabine 400 mg/kg qdx21 p.o., trastuzumab 20 mg/kg q7dx3 i.p., alone or combined)?
The TGI was 53%.

And the “effect on tumor growth (median tumor volumes over time)” value ([3]; zongertinib 10 mg/kg qdx21, capecitabine 400 mg/kg qdx21, trastuzumab 20 mg/kg q7dx3, alone or triple combination)?
The value was “delayed tumor growth but did not shrink tumors”.

And the “difference in IC50 between parental and T-DXd-resistant NCI-N87 cells” value [4]?
Its value is “less than 10 fold”.

What about the “sensitivity (dose response, cell viability)” value [4] of the same compound?
Its value is “sensitive”.
